{"source": "ChEMBL document CHEMBL4402608", "about": "(J Med Chem, 2020)", "key": {"[1]": {"target": "5-hydroxytryptamine receptor 2B (Homo sapiens, UniProt P41595)", "sequence (P41595 whole entry)": "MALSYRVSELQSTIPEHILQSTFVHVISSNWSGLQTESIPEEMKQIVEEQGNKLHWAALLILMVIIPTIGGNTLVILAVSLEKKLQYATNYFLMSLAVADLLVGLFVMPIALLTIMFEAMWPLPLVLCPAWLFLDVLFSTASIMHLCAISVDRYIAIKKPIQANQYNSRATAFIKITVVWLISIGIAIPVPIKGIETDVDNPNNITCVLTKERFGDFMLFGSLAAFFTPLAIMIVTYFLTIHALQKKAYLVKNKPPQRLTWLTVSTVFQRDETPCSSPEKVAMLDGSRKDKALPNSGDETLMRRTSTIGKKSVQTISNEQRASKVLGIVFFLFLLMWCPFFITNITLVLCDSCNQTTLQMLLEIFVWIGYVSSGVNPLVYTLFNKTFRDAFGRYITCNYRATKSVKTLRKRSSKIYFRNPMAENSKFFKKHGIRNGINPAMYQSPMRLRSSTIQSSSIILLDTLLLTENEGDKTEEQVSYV", "experiment": "Displacement of [3H]-LSD from recombinant human 5HT2B receptor stably expressed in HEK cell membranes measured after 90 mins by microbeta scintillation counting method"}, "[2]": {"target": "T1, Alpha-1B adrenergic receptor (Homo sapiens, UniProt P35368)", "T1 sequence (P35368 whole entry)": "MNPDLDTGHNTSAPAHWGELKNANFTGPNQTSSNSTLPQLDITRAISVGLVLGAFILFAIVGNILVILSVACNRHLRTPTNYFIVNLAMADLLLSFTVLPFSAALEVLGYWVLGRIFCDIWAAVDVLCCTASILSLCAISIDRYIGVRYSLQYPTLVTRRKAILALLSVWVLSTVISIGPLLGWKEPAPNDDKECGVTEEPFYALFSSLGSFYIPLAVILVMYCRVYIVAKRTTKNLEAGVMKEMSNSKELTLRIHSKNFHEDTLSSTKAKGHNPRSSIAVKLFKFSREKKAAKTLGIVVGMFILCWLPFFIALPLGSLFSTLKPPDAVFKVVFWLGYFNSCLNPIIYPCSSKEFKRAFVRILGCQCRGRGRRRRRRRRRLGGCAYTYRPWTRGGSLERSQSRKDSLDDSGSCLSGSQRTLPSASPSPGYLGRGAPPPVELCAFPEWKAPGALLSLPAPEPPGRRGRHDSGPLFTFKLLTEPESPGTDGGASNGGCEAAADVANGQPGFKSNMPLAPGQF", "experiment": "Displacement of [3H]-prazosin from recombinant human alpha1B adrenergic receptor transiently expressed in HEKT cell membranes measured after 90 mins by microbeta scintillation counting method"}, "sigma 2 receptor": {"target": "sigma 2 receptor (Homo sapiens, UniProt Q5BJF2)", "sequence (Q5BJF2 whole entry)": "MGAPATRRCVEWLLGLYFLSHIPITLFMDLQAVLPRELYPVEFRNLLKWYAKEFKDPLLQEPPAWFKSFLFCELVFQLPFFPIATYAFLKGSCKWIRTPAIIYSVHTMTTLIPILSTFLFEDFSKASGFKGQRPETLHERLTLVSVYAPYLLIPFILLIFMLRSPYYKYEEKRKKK", "experiment": "Displacement of [3H]-DTG from sigma 2 receptor (unknown origin) at 10 uM measured after 90 mins by microbeta counting analysis relative to control", "conditions": "probe [3H]-DTG; call rule not given here"}, "Histamine H3 receptor [3]": {"target": "T2, Histamine H3 receptor (Homo sapiens, UniProt Q9Y5N1)", "T2 sequence (Q9Y5N1 whole entry)": "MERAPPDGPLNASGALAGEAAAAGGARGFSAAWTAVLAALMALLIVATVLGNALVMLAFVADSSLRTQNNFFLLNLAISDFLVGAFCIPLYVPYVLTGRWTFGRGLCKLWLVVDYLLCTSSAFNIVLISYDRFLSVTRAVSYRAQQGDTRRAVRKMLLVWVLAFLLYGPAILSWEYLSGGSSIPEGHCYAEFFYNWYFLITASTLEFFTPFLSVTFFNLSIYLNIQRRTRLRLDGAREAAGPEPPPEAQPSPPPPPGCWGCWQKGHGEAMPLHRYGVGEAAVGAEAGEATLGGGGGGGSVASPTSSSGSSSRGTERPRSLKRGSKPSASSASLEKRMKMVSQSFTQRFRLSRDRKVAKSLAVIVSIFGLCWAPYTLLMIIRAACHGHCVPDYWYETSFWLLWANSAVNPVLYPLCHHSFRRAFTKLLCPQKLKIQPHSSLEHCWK", "experiment": "Displacement of [3H]-alpha-methylhistamine from recombinant human histamine H3 receptor expressed in HEK Flp-In cell membranes at 10 uM measured after 90 mins by microbeta scintillation counting method relative to control", "conditions": "probe [3H]-alpha-methylhistamine"}, "[4]": {"target": "T1, Alpha-1B adrenergic receptor", "experiment": "Displacement of [3H]-prazosin from recombinant human alpha1B adrenergic receptor transiently expressed in HEKT cell membranes at 10 uM measured after 90 mins by microbeta scintillation counting method relative to control", "conditions": "probe [3H]-prazosin"}, "Histamine H3 receptor [5]": {"target": "T2, Histamine H3 receptor", "experiment": "Displacement of [3H]-alpha-methylhistamine from recombinant human histamine H3 receptor expressed in HEK Flp-In cell membranes measured after 90 mins by microbeta scintillation counting method"}, "Histamine H2 receptor": {"target": "Histamine H2 receptor (Homo sapiens, UniProt P25021)", "sequence (P25021 whole entry)": "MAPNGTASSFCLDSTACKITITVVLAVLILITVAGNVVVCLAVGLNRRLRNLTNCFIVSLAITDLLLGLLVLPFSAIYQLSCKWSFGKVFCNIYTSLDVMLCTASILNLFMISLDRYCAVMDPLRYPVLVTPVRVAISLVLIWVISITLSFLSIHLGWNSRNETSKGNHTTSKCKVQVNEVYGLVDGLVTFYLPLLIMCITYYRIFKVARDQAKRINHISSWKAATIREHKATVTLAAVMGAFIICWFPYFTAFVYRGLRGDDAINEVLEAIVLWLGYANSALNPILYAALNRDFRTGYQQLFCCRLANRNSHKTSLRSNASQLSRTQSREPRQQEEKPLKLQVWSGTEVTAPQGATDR", "experiment": "Displacement of [125I]-Iodo-aminopotentidine from human histamine H2 receptor expressed in stable HEK cell membranes after 90 mins by microbeta scintillation counting method"}, "5HT7A receptor": {"target": "5HT7A receptor (Homo sapiens, UniProt P34969)", "experiment": "Displacement of [3H]-LSD from recombinant human 5HT7A receptor stably expressed in HEK cell membranes at 10 uM measured after 90 mins by microbeta scintillation counting method relative to control", "conditions": "probe [3H]-LSD"}, "muscarinic M5 receptor": {"target": "muscarinic M5 receptor (Homo sapiens, UniProt P08912)", "sequence (P08912 whole entry)": "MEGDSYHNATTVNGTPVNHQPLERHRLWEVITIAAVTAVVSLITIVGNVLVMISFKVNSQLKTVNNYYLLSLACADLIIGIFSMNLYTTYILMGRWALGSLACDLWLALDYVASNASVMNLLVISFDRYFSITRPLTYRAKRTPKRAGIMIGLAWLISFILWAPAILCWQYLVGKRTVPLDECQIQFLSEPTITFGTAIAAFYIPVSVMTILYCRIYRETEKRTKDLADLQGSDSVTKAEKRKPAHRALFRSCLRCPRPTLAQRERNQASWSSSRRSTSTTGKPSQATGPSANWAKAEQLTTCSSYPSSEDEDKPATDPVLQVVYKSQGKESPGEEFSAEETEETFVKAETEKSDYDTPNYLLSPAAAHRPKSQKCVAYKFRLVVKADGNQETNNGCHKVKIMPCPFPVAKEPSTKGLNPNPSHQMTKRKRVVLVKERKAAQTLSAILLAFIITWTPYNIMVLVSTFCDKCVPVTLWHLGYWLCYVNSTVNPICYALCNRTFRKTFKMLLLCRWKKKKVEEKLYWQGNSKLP", "experiment": "Displacement of [3H]-QNB/[3H]-NMS from human muscarinic M5 receptor expressed in stable CHO cell membranes at 10 uM after 90 mins by microbeta scintillation counting method relative to control", "conditions": "probe [3H]-QNB/[3H]-NMS"}, "muscarinic M4 receptor": {"target": "muscarinic M4 receptor (Homo sapiens, UniProt P08173)", "sequence (P08173 whole entry)": "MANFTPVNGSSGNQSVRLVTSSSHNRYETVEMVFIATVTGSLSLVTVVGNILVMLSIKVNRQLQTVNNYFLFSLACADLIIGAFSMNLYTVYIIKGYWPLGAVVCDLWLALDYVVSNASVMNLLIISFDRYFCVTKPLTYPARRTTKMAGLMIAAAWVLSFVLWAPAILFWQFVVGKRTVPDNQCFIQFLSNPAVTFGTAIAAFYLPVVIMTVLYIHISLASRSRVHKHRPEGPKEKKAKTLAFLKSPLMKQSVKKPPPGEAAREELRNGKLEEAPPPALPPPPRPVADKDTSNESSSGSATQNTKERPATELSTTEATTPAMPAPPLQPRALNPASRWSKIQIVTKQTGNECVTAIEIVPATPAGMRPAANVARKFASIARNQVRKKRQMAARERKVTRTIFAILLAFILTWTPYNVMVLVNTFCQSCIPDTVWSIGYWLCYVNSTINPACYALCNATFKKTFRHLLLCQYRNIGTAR", "experiment": "Displacement of [3H]-QNB/[3H]-NMS from human muscarinic M4 receptor expressed in stable CHO cell membranes at 10 uM after 90 mins by microbeta scintillation counting method relative to control", "conditions": "probe [3H]-QNB/[3H]-NMS"}, "dopamine D2 receptor": {"target": "dopamine D2 receptor (Homo sapiens, UniProt P14416)", "experiment": "Displacement of [3H]-N-methylspiperone from recombinant human D2 receptor stably expressed in fibroblast cell membranes at 10 uM measured after 90 mins by microbeta scintillation counting method relative to control", "conditions": "probe [3H]-N-methylspiperone"}, "sigma1 receptor": {"target": "sigma1 receptor (Homo sapiens, UniProt Q99720)", "sequence (Q99720 whole entry)": "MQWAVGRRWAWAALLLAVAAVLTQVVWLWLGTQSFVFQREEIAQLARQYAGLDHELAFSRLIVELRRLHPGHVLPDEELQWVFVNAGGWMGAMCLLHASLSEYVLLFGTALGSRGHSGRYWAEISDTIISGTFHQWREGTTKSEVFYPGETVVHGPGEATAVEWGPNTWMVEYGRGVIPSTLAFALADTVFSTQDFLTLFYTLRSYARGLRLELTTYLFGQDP", "experiment": "Displacement of [3H]-pentazocine from sigma1 receptor (unknown origin) at 10 uM after 90 mins by microbeta scintillation counting method relative to control", "conditions": "probe [3H]-pentazocine"}, "[6]": {"target": "5-hydroxytryptamine receptor 2A (Homo sapiens, UniProt P28223)", "experiment": "Displacement of [3H]-Ketanserin from 5HT2A receptor (unknown origin) measured after 90 mins by microbeta scintillation counting method"}, "muscarinic M1 receptor": {"target": "muscarinic M1 receptor (Homo sapiens, UniProt P11229)", "sequence (P11229 whole entry)": "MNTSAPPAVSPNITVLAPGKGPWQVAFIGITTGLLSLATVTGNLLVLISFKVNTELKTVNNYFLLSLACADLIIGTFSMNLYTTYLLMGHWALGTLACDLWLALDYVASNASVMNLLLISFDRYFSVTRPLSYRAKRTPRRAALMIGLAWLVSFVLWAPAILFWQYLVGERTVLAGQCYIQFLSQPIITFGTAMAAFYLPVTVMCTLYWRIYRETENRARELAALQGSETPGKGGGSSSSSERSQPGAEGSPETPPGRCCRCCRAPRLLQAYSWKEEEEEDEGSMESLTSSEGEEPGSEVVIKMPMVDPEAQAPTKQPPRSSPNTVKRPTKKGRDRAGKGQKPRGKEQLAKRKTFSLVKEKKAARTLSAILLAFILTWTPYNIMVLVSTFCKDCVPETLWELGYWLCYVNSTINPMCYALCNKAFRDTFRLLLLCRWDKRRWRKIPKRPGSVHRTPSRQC", "experiment": "Displacement of [3H]-QNB/[3H]-NMS from human muscarinic M1 receptor expressed in stable CHO cell membranes at 10 uM after 90 mins by microbeta scintillation counting method relative to control", "conditions": "probe [3H]-QNB/[3H]-NMS"}, "[7]": {"target": "T3, Alpha-1D adrenergic receptor (Homo sapiens, UniProt P25100)", "T3 sequence (P25100 whole entry)": "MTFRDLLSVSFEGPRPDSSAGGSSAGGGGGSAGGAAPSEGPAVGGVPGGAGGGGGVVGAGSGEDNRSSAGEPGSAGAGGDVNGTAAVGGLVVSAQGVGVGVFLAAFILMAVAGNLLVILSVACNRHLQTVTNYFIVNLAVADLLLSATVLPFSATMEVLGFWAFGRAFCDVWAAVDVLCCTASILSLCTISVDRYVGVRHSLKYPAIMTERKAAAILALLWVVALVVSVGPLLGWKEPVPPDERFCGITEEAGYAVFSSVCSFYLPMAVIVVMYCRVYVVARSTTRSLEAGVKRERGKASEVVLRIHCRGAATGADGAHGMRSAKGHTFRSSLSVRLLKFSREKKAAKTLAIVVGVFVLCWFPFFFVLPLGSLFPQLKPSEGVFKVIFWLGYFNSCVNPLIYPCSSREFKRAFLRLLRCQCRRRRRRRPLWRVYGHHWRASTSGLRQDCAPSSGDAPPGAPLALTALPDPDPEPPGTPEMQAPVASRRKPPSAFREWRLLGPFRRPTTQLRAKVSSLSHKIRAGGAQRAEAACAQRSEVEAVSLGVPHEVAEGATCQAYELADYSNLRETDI", "experiment": "Displacement of [3H]-prazosin from recombinant human alpha1D adrenergic receptor measured after 90 mins by microbeta scintillation counting method"}, "dopamine D4 receptor": {"target": "dopamine D4 receptor (Homo sapiens, UniProt P21917)", "sequence (P21917 whole entry)": "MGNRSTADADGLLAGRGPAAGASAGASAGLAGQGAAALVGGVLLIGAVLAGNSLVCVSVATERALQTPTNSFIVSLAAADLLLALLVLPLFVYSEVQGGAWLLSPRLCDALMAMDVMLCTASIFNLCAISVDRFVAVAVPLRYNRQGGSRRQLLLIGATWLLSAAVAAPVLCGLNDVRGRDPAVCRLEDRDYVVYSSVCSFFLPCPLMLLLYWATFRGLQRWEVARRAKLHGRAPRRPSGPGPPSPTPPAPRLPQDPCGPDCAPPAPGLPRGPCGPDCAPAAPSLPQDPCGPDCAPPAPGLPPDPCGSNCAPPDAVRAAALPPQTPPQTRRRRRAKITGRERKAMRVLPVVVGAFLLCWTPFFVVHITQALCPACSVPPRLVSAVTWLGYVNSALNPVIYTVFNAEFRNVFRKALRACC", "experiment": "Displacement of [3H]-N-methylspiperone from recombinant human D4 receptor stably expressed in HEK cell membranes at 10 uM measured after 90 mins by microbeta scintillation counting method relative to control", "conditions": "probe [3H]-N-methylspiperone"}, "muscarinic M3 receptor": {"target": "muscarinic M3 receptor (Homo sapiens, UniProt P20309)", "sequence (P20309 whole entry)": "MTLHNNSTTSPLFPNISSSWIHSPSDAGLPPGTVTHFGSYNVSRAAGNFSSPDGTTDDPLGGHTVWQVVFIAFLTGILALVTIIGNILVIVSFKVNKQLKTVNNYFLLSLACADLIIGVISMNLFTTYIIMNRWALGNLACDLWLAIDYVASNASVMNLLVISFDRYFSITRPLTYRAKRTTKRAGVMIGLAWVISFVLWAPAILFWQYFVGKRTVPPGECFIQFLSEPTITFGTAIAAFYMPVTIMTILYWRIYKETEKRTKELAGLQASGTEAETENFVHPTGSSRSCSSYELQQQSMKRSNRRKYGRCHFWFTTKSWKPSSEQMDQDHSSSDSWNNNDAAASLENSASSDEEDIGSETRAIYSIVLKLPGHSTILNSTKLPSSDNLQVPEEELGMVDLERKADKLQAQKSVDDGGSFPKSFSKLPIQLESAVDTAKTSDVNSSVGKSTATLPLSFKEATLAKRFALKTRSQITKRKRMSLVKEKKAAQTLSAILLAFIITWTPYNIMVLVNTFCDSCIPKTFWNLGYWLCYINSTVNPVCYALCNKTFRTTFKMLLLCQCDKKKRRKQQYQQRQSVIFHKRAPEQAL", "experiment": "Displacement of [3H]-QNB/[3H]-NMS from human muscarinic M3 receptor expressed in stable CHO cell membranes at 10 uM after 90 mins by microbeta scintillation counting method relative to control", "conditions": "probe [3H]-QNB/[3H]-NMS"}, "5HT1E receptor": {"target": "5HT1E receptor (Homo sapiens, UniProt P28566)", "sequence (P28566 whole entry)": "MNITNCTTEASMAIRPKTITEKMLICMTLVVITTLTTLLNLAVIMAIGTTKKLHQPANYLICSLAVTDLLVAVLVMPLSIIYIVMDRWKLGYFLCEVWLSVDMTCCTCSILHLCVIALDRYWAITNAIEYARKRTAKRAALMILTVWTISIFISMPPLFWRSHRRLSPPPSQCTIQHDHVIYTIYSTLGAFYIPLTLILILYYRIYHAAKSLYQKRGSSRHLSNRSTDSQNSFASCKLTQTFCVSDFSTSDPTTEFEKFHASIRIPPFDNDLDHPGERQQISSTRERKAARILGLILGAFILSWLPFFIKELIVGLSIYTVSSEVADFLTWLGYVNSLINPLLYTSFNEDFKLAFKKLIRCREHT", "experiment": "Displacement of [3H]5-HT from recombinant human 5HT1E receptor stably expressed in HEK cell membranes at 10 uM measured after 90 mins by microbeta scintillation counting method relative to control", "conditions": "probe [3H]5-HT"}, "Mu-type opioid receptor": {"target": "Mu-type opioid receptor (Homo sapiens, UniProt P35372)", "sequence (P35372 whole entry)": "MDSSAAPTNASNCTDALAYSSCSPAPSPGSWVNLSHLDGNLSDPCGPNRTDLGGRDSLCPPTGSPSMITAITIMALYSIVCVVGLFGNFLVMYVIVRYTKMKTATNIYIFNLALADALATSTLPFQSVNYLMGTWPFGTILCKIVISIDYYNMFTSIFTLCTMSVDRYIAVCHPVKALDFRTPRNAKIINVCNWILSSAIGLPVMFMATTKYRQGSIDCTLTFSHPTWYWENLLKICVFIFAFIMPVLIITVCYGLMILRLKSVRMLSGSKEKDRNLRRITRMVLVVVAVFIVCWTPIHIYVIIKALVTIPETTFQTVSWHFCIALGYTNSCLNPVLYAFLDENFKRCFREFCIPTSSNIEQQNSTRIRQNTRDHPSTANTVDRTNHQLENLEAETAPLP", "experiment": "Displacement of [3H]-DAMGO from recombinant human MOR stably expressed in HEK cell membranes measured after 90 mins by microbeta scintillation counting method"}}}
{"smiles": "CCCN(CC[C@]1(O)C[C@H](NC(=O)c2ccc3ccccc3c2)C1)[C@H]1CCc2nc(N)sc2C1", "values": [{"measurement": "Ki", "setting": "[1]; read-out: Ki", "result": 1180, "unit": "nM"}, {"measurement": "Ki", "setting": "[2]; read-out: Ki", "result": 666, "unit": "nM"}, {"measurement": "inhibition at […], 10 µM", "setting": "sigma 2 receptor", "result": "< 50", "unit": "%"}, {"measurement": "inhibition at […], 10 µM", "setting": "Histamine H3 receptor [3]", "result": "> 50", "unit": "%"}, {"measurement": "inhibition at […], 10 µM", "setting": "[4]", "result": "> 50", "unit": "%"}, {"measurement": "Ki", "setting": "Histamine H3 receptor [5]; read-out: Ki", "result": 893, "unit": "nM"}, {"measurement": "Ki", "setting": "Histamine H2 receptor", "result": 224, "unit": "nM"}, {"measurement": "inhibition at […], 10 µM", "setting": "5HT7A receptor", "result": "> 50", "unit": "%"}, {"measurement": "inhibition at […], 10 µM", "setting": "muscarinic M5 receptor", "result": "> 50", "unit": "%"}, {"measurement": "inhibition at […], 10 µM", "setting": "muscarinic M4 receptor", "result": "> 50", "unit": "%"}, {"measurement": "inhibition at […], 10 µM", "setting": "dopamine D2 receptor", "result": "> 50", "unit": "%"}, {"measurement": "inhibition at […], 10 µM", "setting": "sigma1 receptor", "result": "> 50", "unit": "%"}, {"measurement": "Ki", "setting": "[6]; read-out: Ki", "result": 2840, "unit": "nM"}, {"measurement": "inhibition at […], 10 µM", "setting": "muscarinic M1 receptor", "result": "< 50", "unit": "%"}, {"measurement": "Ki", "setting": "[7]; read-out: Ki", "result": 1180, "unit": "nM"}, {"measurement": "inhibition at […], 10 µM", "setting": "dopamine D4 receptor", "result": "> 50", "unit": "%"}, {"measurement": "inhibition at […], 10 µM", "setting": "muscarinic M3 receptor", "result": "< 50", "unit": "%"}, {"measurement": "inhibition at […], 10 µM", "setting": "5HT1E receptor", "result": "< 50", "unit": "%"}, {"measurement": "Ki", "setting": "Mu-type opioid receptor; read-out: Ki", "result": 745, "unit": "nM"}]}
{"smiles": "CCCN[C@H]1CCc2nc(N)sc2C1", "note": "[PRAMIPEXOLE]", "values": [{"measurement": "Ki", "setting": "[1]", "result": "Not Active"}, {"measurement": "Ki", "setting": "[2]", "result": "Not Active"}, {"measurement": "inhibition at […], 10 µM", "setting": "sigma 2 receptor", "result": "< 50", "unit": "%"}, {"measurement": "inhibition at […], 10 µM", "setting": "Histamine H3 receptor [3]", "result": "< 50", "unit": "%"}, {"measurement": "inhibition at […], 10 µM", "setting": "[4]", "result": "< 50", "unit": "%"}, {"measurement": "Ki", "setting": "Histamine H3 receptor [5]", "result": "Not Active"}, {"measurement": "Ki", "setting": "Histamine H2 receptor", "result": 2680, "unit": "nM"}, {"measurement": "inhibition at […], 10 µM", "setting": "5HT7A receptor", "result": "> 50", "unit": "%"}, {"measurement": "inhibition at […], 10 µM", "setting": "muscarinic M5 receptor", "result": "< 50", "unit": "%"}, {"measurement": "inhibition at […], 10 µM", "setting": "muscarinic M4 receptor", "result": "< 50", "unit": "%"}, {"measurement": "inhibition at […], 10 µM", "setting": "dopamine D2 receptor", "result": "> 50", "unit": "%"}, {"measurement": "inhibition at […], 10 µM", "setting": "sigma1 receptor", "result": "> 50", "unit": "%"}, {"measurement": "Ki", "setting": "[6]", "result": "Not Active"}, {"measurement": "inhibition at […], 10 µM", "setting": "muscarinic M1 receptor", "result": "> 50", "unit": "%"}, {"measurement": "Ki", "setting": "[7]", "result": "Not Active"}, {"measurement": "inhibition at […], 10 µM", "setting": "dopamine D4 receptor", "result": "> 50", "unit": "%"}, {"measurement": "inhibition at […], 10 µM", "setting": "muscarinic M3 receptor", "result": "> 50", "unit": "%"}, {"measurement": "inhibition at […], 10 µM", "setting": "5HT1E receptor", "result": "> 50", "unit": "%"}, {"measurement": "Ki", "setting": "Mu-type opioid receptor", "result": "Not Active"}]}
